Reference: US7691848B2, “Pyrrolobenzodiazepine arylcarboxamides and derivatives thereof as follicle-stimulating hormone receptor antagonists” (Wyeth, priority 2005, dated 2010)
Where a name gives a salt, the structure may show the parent alone.

Key:
human FSH receptor = biological target: T1, human FSH receptor (Homo sapiens, UniProt P23945); test: Follicle-Stimulating Hormone Receptor-Dependent Cre-Luciferase Reporter Gene Assay (CHO FSH-R 6CRE-Luc cells); type: cell-based; conditions: for IC50: dose-response format, in presence of EC50 of purified human FSH
T1 construct: host or cells: CHO-K1 (CHO FSH-R 6CRE-Luc, 1D7 cells)
T1 sequence (P23945 18-695): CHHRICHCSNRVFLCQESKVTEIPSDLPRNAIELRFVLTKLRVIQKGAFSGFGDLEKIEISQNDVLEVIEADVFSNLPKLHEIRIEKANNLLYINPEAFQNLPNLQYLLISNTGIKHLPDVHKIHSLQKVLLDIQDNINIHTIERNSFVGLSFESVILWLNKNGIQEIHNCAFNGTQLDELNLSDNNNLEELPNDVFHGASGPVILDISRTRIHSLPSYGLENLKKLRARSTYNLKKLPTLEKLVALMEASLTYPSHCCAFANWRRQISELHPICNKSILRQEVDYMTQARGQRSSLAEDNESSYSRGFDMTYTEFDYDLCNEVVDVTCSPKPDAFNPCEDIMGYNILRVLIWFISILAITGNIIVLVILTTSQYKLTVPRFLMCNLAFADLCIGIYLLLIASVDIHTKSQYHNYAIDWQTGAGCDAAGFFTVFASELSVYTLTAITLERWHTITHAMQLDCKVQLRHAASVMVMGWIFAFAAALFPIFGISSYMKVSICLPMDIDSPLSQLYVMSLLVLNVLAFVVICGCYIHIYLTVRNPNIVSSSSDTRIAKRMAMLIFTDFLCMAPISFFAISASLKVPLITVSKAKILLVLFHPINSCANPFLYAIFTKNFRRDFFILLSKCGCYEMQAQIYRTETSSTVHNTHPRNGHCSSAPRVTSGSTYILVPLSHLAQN
Description: Follicle-Stimulating Hormone Receptor-Dependent Cre-Luciferase Reporter Gene Assay for the Identification of Follicle-Stimulating Hormone (FSH) Antagonists
A Chinese hamster ovarian cell line that stably produces the human FSH receptor and a luciferase reporter gene regulated by cAMP response elements was used to identify and determine the relative potencies of human FSH receptor antagonists. See for example, Kelton, C. A., et al. Mol. Cell. Endocrinol. 89:141-151 (1992), Tilly, J. L., et al. Endocrinology 131:799-806(1992), and George, S. E., et al. J. Biomol. Screening 2:235-240 (1997).
Compound Vehicle: Stock compounds were solubilized in an appropriate vehicle, e.g., phosphate buffered saline (PBS) or dimethyl sulfoxide (DMSO), at 30 mM. The compounds were subsequently diluted in DMSO to working dilutions of 1 and 20 or 30 mM for 2-dose testing format and 1 μM-10 mM for dose-response format. The DMSO dilutions were diluted 500-fold in sterile growth medium [D-MEM/F-12 (GIBCO/BRL; Grand Island, NY) containing 15 mM HEPES, 2 mM 1-glutamine, pyridoxine hydrochloride, phenol red and 5% FetalClone® II (HyClone Laboratories, Inc; Logan, Utah), 0.2% DMSO, 100 units penicillin G/ml, and 100 μg streptomycin sulfate/ml (GIBCO/BRL)]. The concentration of the vehicle in each of the compound dilutions was the same.
Positive Controls: Purified human FSH (>98%) was purchased from Cortex Biochem, Inc. (San Leandro, Calif.) and 3-[(2S*,5R*)-5-{[2-(1H-Indol-3-yl)-ethylcarbamoyl]-methyl}-4-oxo-2-(5-phenylethynyl-thiophen-2-yl)-thiazolidin-3-yl]-benzamide (an FSH-R thiazolidinone antagonist) was prepared by processes described by R. A. Scheuerman et al. in U.S. Pat. No. 6,426,357 (Affymax).
The CHO FSH-R 6CRE-Luc cells (1D7 cells) were obtained from Affymax (Palo Alto, Calif.). These Chinese hamster ovary cells (CHO-K1) were engineered genetically to stably express the recombinant human FSH receptor gene and a luciferase reporter gene under the regulation of 6 copies of a cAMP response element. The cells were plated one day prior to treatment into 96-well white opaque plates at a density of 50,000 cells/100 μl/well in growth medium. On the day of treatment, the growth medium was removed from the wells by aspiration and 50 μl of fresh growth medium was added to each well. The cells were incubated at 37° C. in a humidified incubator with 5% CO2/95% air.
The treated cells were incubated for 4 hours at 37° C. in a humidified incubator with 5% CO2/95% air. At the end of the incubation period, luciferase activity was measured by chemiluminescence using a commercially available kit (LucScreen, Tropix, Inc., Bedford, Mass.) according to the manufacturer's specifications, except that Buffer 1 and Buffer 2 were mixed together in equal proportion prior to the addition of 100 μl of the combined reagents to each well. Chemiluminescence was detected using a luminometer (EG & G Berthold Microlumat LB 96 P, Wallac, Gaithersburg, Md.) with chemiluminescence measured for 1 sec/well. Background luminescence was measured for each well prior to the addition of the LucScreen reagent.
In the 96-well 2-dose format, each compound was tested in duplicate at each dose. […] One plate was used to test a maximum of 22 compounds.
The EC50 of purified human FSH alone was tested in triplicate with each test compound. The doses chosen to test each compound were extrapolated from the initial 2-dose screening process. Along with the test compounds, purified human FSH also was tested in a dose response (0.03, 0.1, 0.3, 1, 3, 10, and 30 ng/ml) for a positive control and quality control. One plate was used for 3 test compounds and the FSH positive control.
Luciferase activity is expressed as relative light units/sec/well. Luciferase activity in antagonist was compared to the appropriate negative and positive controls. For 2-dose testing, results are reported as luciferase activity and are expressed as percent inhibition of the response obtained from the EC50 of FSH.

[1] = 2-dose format, concentration in parentheses 30 μM, inhibition of the response to EC50 of FSH

| melting point | inhibition at 30 µM (human FSH receptor; [1]) | IC50 (human FSH receptor) | SMILES | CRE % inhibition (μM) (human FSH receptor; [1]) |
| --- | --- | --- | --- | --- |
| 129 to 131 °C | – | – | Cc1ccccc1-c1ccc(C(=O)N2Cc3ccc(C(=O)NCCCCc4ccccc4)n3Cc3ccccc32)cc1C [Example 56] | – |
| 199 to 201 °C | – | > 30 µM | CCOC(=O)c1ccc(NC(=O)c2ccc3n2Cc2ccccc2N(C(=O)COc2ccc(Cl)cc2)C3)cc1 [Example 96, ETHYL 4-[({10-[(4-CHLOROPHENOXY)ACETYL]-10,11-DIHYDRO-5H-PYRROLO[2,1-C][1,4]BENZODIAZEPIN-3-YL}CARBONYL)AMINO]BENZOATE] | – |
| 199 to 200 °C | – | > 30 µM | O=C(NC1CCCc2ccccc21)c1ccc2n1Cc1ccccc1N(C(=O)COc1ccc(Cl)cc1)C2 (centres unmarked) [Example 94, 10-[(4-CHLOROPHENOXY)ACETYL]-N-(1,2,3,4-TETRAHYDRONAPHTHALEN-1-YL)-10,11-DIHYDRO-5H-PYRROLO[2,1-C][1,4]BENZODIAZEPINE-3-CARBOXAMIDE] | – |
| 176 to 182 °C | – | > 30 µM | O=C(Nc1ccc2c(c1)C(O)c1ccccc1-2)c1ccc2n1Cc1ccccc1N(C(=O)COc1ccc(Cl)cc1)C2 (centres unmarked) [Example 97, 10-[(4-CHLOROPHENOXY)ACETYL]-N-(9-HYDROXY-9H-FLUOREN-2-YL)-10,11-DIHYDRO-5H-PYRROLO[2,1-C][1,4]BENZODIAZEPINE-3-CARBOXAMIDE] | – |
| 154 to 155 °C | 27% | – | O=C(NCc1ccc2c(c1)OCO2)c1ccc2n1Cc1ccccc1N(C(=O)CSc1ccc(Br)cc1)C2 [Example 84] | – |
| 150 to 154 °C | – | > 30 µM | COc1ccc(CCNC(=O)c2ccc3n2Cc2ccccc2N(C(=O)c2ccc(-c4ccccc4C)c(OC)c2)C3)cc1OC [Example 52, N-[2-(3,4-DIMETHOXYPHENYL)ETHYL]-10-[(2-METHOXY-2′-METHYL-1,1′-BIPHENYL-4-YL)CARBONYL]-10,11-DIHYDRO-5H-PYRROLO[2,1-C][1,4]BENZODIAZEPINE-3-CARBOXAMIDE] | – |
| 167 to 168 °C | 33% | – | COc1cc(CNC(=O)c2ccc3n2Cc2ccccc2N(C(=O)COc2ccc(Cl)cc2C)C3)ccc1O [Example 78, 10-[(4-CHLORO-2-METHYLPHENOXY)ACETYL]-N-(4-HYDROXY-3-METHOXYBENZYL)-10,11-DIHYDRO-5H-PYRROLO[2,1-C][1,4]BENZODIAZEPINE-3-CARBOXAMIDE] | – |
| 154 to 157 °C | – | – | Cc1ccccc1-c1ccc(C(=O)N2Cc3ccc(C(=O)NCCc4ccc5c(c4)OCO5)n3Cc3ccccc32)cc1C (as salt: hydrochloride) [Example 33] | – |
| – | 8% | – | COc1ccccc1-c1ccc(C(=O)N2Cc3ccc(C(=O)NCc4c(Cl)cccc4Oc4ccccc4)n3Cc3ccccc32)cc1 [Example 3, N-(2-CHLORO-6-PHENOXYBENZYL)-10-[(2′-METHOXY-1,1′-BIPHENYL-4-YL)CARBONYL]-10,11-DIHYDRO-5H-PYRROLO[2,1-C][1,4]BENZODIAZEPINE-3-CARBOXAMIDE] | – |
| – | – | 11.9 µM | Cc1ccccc1-c1ccc(C(=O)N2Cc3ccc(C(=O)NCc4cccc(CN)c4)n3Cc3ccccc32)cc1C [Example 12] | – |
| – | 37% | – | Cc1ccccc1-c1ccc(C(=O)N2Cc3ccc(C(=O)NCc4ccc(O)cc4)n3Cc3ccccc32)cc1C [Example 9] | – |

Further lines, the compound ahead of its results:

| SMILES | melting point | inhibition at 30 µM (human FSH receptor; [1]) | IC50 (human FSH receptor) | CRE % inhibition (μM) (human FSH receptor; [1]) |
| --- | --- | --- | --- | --- |
| COc1cc(C(=O)N2Cc3ccc(C(=O)NCc4ccc(Cl)cc4)n3Cc3ccccc32)ccc1-c1ccccc1C [Example 43, N-(4-CHLOROBENZYL)-10-[(2-METHOXY-2′-METHYL-1,1′-BIPHENYL-4-YL)CARBONYL]-10,11-DIHYDRO-5H-PYRROLO[2,1-C][1,4]BENZODIAZEPINE-3-CARBOXAMIDE] | 218 to 219 °C | 56% | – | – |
| O=C(NCc1ccc2c(c1)OCO2)c1ccc2n1Cc1ccccc1N(C(=O)COc1ccc(Cl)cc1)C2 [Example 69] | 168 to 169 °C | 21% | – | – |
| COc1cc(C(=O)N2Cc3ccc(C(=O)NCc4ccccc4C)n3Cc3ccccc32)ccc1-c1ccccc1C [Example 41, 10-[(2-METHOXY-2′-METHYL-1,1′-BIPHENYL-4-YL)CARBONYL]-N-(2-METHYLBENZYL)-10,11-DIHYDRO-5H-PYRROLO[2,1-C][1,4]BENZODIAZEPINE-3-CARBOXAMIDE] | 204 °C | 62% | – | – |
| Cc1ccccc1-c1ccc(C(=O)N2Cc3ccc(C(=O)NC4CCc5ccccc54)n3Cc3ccccc32)cc1C (centres unmarked) [Example 92] | 122 to 124 °C | – | > 30 µM | – |
| O=C(NCCc1ccc(O)cc1)c1ccc2n1Cc1ccccc1N(C(=O)COc1ccc(Cl)cc1)C2 [Example 68, 10-[(4-CHLOROPHENOXY)ACETYL]-N-[2-(4-HYDROXYPHENYL)ETHYL]-10,11-DIHYDRO-5H-PYRROLO[2,1-C][1,4]BENZODIAZEPINE-3-CARBOXAMIDE] | 206 to 207 °C | – | 13.2 µM | – |
| O=C1c2cc(Br)ccc2-c2ccc(NC(=O)c3ccc4n3Cc3ccccc3N(C(=O)COc3ccc(Cl)cc3)C4)cc21 [Example 103, N-(7-BROMO-9-OXO-9H-FLUOREN-2-YL)-10-[(4-CHLOROPHENOXY)ACETYL]-10,11-DIHYDRO-5H-PYRROLO[2,1-C][1,4]BENZODIAZEPINE-3-CARBOXAMIDE] | 277 to 278 °C | – | > 30 µM | – |
| COc1cc(C(=O)N2Cc3ccc(C(=O)NCCc4ccc(C)cc4)n3Cc3ccccc32)ccc1-c1ccccc1C [Example 48] | 190 to 192 °C | – | > 30 µM | – |
| Cc1cc(Cl)ccc1OCC(=O)N1Cc2ccc(C(=O)NCc3ccc4c(c3)OCO4)n2Cc2ccccc21 [Example 76] | – | – | – | 15(30) % |
| Cc1ccccc1-c1ccc(C(=O)N2Cc3ccc(C(=O)NCc4ccc(CN)cc4)n3Cc3ccccc32)cc1C [Example 11] | – | – | 14.9 µM | – |
| COc1cc(C(=O)N2Cc3ccc(C(=O)NCCc4ccc5c(c4)OCO5)n3Cc3ccccc32)ccc1-c1ccccc1C [Example 62, N-[2-(1,3-BENZODIOXOL-5-YL)ETHYL]-10-[(2-METHOXY-2′-METHYL-1,1′-BIPHENYL-4-YL)CARBONYL]-10,11-DIHYDRO-5H-PYRROLO[2,1-C][1,4]BENZODIAZEPINE-3-CARBOXAMIDE] | 178 to 179 °C | – | – | – |
| COc1cc(C(=O)N2Cc3ccc(C(=O)NCCc4cccc(Cl)c4)n3Cc3ccccc32)ccc1-c1ccccc1C [Example 51, N-[2-(3-CHLOROPHENYLETHYL]-10-[(2-METHOXY-2′-METHYL-1,1′-BIPHENYL-4-YL)CARBONYL]-10,11-DIHYDRO-5H-PYRROLO[2,1-C][1,4]BENZODIAZEPINE-3-CARBOXAMIDE] | – | – | > 30 µM | – |
